Experimental data as given in publication PMC6327040, “A novel scaffold for EGFR inhibition: Introducing N-(3-(3-phenylureido)quinoxalin-6-yl) acrylamide derivatives” (Scientific Reports, 2019).

Key:
EGFRwt = EGFRwt (Homo sapiens, UniProt P00533); experiment: HTRF KinEASE-TK biochemical assay (TR-FRET), EGFRwt; conditions: for inhibitory activity on EGFRwt (in words): enzymatic in vitro determination
Procedure: (§1) An artificial substrate peptide (TK-substrate from Cisbio) was phosphorylated by EGFR. After completion of the reaction (reaction times: 25 min for wild-type, 15 min for L858R, 20 min for T790M/L858R), the reaction was stopped by addition of a buffer containing EDTA as well as, an anti-phosphotyrosine antibody labeled with europium cryptate and streptavidin labeled with the fluorophore XL665. FRET between europium cryptate and XL665 was measured after an additional hour of incubation to quantify the phosphorylation of the substrate peptide. […] Kinase and inhibitor were preincubated for 30 min (EGFR-wt) and 1 h (EGFR-L858R and EGFR-L858R/T790M) before the reaction was started by addition of ATP and substrate peptide. An EnVision multimode plate reader (Perkin Elmer) was used to measure the fluorescence of the samples at 620 nm (Eu-labeled antibody) and 665 nm (XL665 labeled streptavidin) 50 μs after excitation at 320 nm. The quotient of both intensities for reactions made with eight different inhibitor concentrations was then analyzed using the Quattro Software Suite for IC50-determination. Each reaction was performed in duplicate, and at least three independent determinations of each IC50 were made.

EGFRL858R = EGFRL858R (Homo sapiens, UniProt P00533, L858R); experiment: HTRF KinEASE-TK biochemical assay (TR-FRET), EGFR-L858R; conditions: for inhibitory activity on EGFRL858R (in words): enzymatic in vitro determination
Sequence of EGFRL858R (P00533 25-1210 L858R): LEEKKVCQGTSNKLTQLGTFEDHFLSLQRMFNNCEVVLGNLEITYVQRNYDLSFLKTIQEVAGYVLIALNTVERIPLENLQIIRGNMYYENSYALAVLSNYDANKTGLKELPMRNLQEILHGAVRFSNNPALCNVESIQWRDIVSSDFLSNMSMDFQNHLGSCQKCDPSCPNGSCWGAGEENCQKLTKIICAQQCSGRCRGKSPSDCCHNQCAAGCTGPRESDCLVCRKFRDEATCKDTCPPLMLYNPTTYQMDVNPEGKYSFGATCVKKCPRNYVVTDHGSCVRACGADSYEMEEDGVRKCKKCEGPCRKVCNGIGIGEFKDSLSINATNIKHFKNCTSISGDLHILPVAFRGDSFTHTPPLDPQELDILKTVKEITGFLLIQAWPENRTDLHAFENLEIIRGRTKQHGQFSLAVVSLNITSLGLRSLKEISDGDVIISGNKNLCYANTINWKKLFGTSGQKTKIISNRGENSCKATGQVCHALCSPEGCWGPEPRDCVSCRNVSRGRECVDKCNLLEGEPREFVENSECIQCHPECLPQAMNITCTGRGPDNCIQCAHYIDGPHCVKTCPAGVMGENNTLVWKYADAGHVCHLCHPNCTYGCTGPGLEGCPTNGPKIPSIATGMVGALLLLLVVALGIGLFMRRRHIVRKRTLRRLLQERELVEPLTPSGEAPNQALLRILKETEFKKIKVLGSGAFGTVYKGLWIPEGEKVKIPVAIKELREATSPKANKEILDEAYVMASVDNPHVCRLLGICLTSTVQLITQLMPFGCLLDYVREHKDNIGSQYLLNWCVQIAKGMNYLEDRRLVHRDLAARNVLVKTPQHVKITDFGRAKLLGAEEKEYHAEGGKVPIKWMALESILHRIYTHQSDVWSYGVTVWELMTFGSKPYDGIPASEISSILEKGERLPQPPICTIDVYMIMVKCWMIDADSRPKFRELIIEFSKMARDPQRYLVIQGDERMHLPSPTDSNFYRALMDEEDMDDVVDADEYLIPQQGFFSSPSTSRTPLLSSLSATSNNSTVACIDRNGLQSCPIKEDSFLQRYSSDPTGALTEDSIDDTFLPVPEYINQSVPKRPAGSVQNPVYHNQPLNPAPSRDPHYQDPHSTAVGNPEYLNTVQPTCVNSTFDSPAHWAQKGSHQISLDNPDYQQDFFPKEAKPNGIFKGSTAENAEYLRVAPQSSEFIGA
Procedure: as §1

EGFRL858R/T790M = EGFRL858R/T790M (Homo sapiens, UniProt P00533, L858R/T790M); experiment: HTRF KinEASE-TK biochemical assay (TR-FRET), EGFR-L858R/T790M; conditions: for inhibitory activity on EGFRL858R/T790M (in words): enzymatic in vitro determination
Sequence of EGFRL858R/T790M (P00533 25-1210 T790M/L858R): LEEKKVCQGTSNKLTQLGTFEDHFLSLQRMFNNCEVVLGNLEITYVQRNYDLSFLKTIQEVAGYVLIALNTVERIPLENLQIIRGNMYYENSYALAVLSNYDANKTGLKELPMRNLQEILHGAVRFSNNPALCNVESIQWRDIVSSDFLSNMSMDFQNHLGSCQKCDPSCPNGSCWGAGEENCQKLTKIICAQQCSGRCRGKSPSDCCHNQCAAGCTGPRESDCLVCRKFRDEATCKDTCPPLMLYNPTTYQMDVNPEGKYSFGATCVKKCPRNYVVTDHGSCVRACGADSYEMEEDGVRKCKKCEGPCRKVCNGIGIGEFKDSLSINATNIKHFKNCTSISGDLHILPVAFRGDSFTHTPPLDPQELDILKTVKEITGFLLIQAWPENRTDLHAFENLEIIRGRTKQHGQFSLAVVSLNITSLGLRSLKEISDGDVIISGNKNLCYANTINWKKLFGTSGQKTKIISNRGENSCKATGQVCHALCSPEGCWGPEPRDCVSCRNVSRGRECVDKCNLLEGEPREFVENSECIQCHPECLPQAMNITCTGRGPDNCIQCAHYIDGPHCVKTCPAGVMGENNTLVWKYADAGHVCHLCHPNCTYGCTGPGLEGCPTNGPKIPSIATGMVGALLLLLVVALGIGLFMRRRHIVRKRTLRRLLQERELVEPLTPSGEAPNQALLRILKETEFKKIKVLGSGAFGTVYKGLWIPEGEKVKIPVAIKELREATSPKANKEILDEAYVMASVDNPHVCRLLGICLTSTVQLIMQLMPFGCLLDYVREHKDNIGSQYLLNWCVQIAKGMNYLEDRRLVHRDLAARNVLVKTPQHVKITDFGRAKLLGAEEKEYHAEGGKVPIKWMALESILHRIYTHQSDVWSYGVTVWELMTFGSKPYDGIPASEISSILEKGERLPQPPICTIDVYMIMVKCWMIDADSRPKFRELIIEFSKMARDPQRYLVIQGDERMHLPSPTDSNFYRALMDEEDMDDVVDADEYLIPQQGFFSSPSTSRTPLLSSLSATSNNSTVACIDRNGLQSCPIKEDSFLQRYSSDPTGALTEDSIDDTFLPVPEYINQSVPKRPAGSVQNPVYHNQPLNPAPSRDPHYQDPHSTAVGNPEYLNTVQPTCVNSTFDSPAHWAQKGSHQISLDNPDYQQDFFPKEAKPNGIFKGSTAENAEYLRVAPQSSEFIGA
Procedure: as §1

Sequence of EGFRwt (P00533 25-1210): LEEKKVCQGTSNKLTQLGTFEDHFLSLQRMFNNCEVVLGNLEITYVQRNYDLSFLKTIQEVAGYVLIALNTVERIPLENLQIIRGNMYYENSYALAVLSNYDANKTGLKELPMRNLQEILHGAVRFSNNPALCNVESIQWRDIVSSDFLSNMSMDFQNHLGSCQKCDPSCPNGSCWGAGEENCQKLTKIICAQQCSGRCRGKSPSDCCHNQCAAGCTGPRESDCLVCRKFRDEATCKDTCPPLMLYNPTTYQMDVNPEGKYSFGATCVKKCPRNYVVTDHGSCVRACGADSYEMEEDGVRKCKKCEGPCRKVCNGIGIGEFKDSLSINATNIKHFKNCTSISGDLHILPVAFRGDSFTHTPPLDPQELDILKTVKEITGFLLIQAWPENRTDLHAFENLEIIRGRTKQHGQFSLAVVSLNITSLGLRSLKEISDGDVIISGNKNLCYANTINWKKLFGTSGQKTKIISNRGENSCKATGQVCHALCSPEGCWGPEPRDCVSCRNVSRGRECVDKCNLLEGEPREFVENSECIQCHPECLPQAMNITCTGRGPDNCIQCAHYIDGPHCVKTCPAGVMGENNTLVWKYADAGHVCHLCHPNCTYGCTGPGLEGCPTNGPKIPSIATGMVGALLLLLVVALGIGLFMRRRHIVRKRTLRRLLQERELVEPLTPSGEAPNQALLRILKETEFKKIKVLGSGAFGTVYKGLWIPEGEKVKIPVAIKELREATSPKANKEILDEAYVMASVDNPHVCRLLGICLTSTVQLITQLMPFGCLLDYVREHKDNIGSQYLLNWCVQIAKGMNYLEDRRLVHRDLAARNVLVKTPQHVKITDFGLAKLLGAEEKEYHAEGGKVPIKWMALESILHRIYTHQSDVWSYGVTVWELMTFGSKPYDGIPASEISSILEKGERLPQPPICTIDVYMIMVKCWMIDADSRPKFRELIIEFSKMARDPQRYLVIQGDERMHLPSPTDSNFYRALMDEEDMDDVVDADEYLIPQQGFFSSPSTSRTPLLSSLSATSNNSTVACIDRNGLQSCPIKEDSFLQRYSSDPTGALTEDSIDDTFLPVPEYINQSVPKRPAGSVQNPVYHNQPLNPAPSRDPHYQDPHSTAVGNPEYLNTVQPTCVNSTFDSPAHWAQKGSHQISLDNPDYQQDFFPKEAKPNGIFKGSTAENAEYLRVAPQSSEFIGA

Row | Structure (SMILES) | melting point | IC50 (EGFRwt) | inhibitory activity on EGFRwt (in words) (EGFRwt) | IC50 (EGFRL858R) | inhibitory activity on EGFRL858R (in words) (EGFRL858R) | IC50 (EGFRL858R/T790M) | inhibitory activity on EGFRL858R/T790M (in words) (EGFRL858R/T790M)
1 | C=CC(=O)Nc1ccc2ncc(NC(=O)Nc3cccc(C(F)(F)F)c3)nc2c1 [Compound 7f, N-(3-(3-(3-(trifluoromethyl)phenyl)ureido)quinoxalin-6-yl)acrylamide] | 268 to 271 °C | 2.5 ± 0.735 µM | weak activity | 2.16 ± 1.62 µM | weak activity | > 10 µM | no inhibitory activity
2 | O=C(CCl)Nc1ccc2ncc(NC(=O)Nc3cccc(C(F)(F)F)c3)nc2c1 [Compound 7g, 2-chloro-N-(3-(3-(3-(trifluoromethyl)phenyl)ureido)quinoxalin-6-yl)acetamide] | 260 to 263 °C | 0.179 ± 0.061 µM | weak activity | 2.1 ± 0.505 µM | weak activity | 9.83 ± 0.297 µM | no inhibitory activity
3 | O=C(CCl)Nc1ccc2ncc(NC(=O)Nc3ccccc3)nc2c1 [Compound 7j, 2-chloro-N-(3-(3-phenylureido)quinoxalin-6-yl)acetamide] | 249 to 252 °C | 0.123 ± 0.134 µM | – | 0.27 ± 0.202 µM | – | 0.823 ± 0.613 µM | –
4 | O=C(CCl)Nc1ccc2ncc(NC(=O)Nc3ccc(Cl)c(C(F)(F)F)c3)nc2c1 [Compound 7c, 2-chloro-N-(3-(3-(4-chloro-3-(trifluoromethyl)phenyl)ureido)quinoxalin-6-yl)acetamide] | 253 to 255 °C | > 10 µM | – | 3.24 ± 1.26 µM | – | 2.71 ± 0.412 µM | –
